The record followed here is ChEMBL document CHEMBL3991601, “The target landscape of clinical kinase drugs” (Science, 2017).

Active and inactive are the calls of the source. Cut-off read from the data, not from the text of the source, for most assays here: actives have a measured Kd and inactives only a lower limit. A value given as a limit tells only on which side of the number the result lay.

In test [1] the target is T1, Activin receptor type-1 (Homo sapiens, UniProt Q04771).
T1 sequence (Q04771 whole entry): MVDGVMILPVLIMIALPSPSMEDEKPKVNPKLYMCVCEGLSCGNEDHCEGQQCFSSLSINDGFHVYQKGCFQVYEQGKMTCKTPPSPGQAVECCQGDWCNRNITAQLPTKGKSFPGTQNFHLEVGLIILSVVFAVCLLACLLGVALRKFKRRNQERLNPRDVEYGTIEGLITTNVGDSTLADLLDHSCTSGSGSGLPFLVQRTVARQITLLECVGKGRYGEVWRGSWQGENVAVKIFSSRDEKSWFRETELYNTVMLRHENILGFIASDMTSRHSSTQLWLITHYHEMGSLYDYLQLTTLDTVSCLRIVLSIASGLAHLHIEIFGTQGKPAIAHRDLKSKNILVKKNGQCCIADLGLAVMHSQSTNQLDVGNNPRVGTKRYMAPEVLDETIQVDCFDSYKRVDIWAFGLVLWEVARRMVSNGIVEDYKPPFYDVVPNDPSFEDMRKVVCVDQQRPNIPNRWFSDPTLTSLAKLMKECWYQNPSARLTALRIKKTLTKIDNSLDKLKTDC

Test [2] concerns the target T2, Glycine--tRNA ligase (Homo sapiens, UniProt P41250).
T2 sequence (P41250 whole entry): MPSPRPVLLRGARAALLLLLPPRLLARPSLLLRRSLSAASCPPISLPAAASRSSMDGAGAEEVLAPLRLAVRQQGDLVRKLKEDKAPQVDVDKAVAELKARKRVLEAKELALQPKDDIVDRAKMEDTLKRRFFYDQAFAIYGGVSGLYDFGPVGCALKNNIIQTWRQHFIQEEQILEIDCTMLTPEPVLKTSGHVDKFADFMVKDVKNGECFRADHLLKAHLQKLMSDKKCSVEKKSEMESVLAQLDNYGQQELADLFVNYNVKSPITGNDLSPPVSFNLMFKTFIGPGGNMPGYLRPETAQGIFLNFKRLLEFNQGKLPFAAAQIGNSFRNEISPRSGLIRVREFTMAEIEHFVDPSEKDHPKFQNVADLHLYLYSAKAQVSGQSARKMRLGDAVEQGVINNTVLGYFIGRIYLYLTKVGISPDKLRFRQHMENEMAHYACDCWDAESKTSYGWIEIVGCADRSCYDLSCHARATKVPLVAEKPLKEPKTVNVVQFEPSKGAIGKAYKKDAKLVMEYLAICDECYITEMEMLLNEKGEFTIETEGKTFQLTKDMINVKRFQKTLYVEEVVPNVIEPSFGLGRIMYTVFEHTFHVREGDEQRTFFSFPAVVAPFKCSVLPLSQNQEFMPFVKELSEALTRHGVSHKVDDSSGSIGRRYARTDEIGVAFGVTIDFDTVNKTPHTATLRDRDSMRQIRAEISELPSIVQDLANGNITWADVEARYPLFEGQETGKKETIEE

Test [3] concerns the target T3, Interleukin-1 receptor-associated kinase 3 (Homo sapiens, UniProt Q9Y616).
T3 sequence (Q9Y616 whole entry): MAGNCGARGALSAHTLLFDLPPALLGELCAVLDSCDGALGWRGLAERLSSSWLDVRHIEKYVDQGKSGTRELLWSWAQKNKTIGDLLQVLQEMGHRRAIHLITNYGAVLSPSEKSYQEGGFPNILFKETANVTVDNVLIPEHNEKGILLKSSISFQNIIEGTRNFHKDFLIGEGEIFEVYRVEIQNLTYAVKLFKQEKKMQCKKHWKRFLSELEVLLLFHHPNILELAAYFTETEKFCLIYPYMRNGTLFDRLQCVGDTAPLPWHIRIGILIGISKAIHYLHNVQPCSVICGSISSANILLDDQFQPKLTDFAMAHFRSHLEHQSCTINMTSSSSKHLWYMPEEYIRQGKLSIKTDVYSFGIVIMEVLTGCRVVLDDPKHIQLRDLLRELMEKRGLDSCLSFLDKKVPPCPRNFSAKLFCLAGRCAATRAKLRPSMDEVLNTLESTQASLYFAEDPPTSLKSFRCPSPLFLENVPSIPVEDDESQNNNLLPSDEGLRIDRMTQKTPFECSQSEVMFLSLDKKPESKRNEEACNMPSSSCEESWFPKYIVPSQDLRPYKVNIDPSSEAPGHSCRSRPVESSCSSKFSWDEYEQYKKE

For test [4], the target named is Dual specificity mitogen-activated protein kinase kinase 1 (Homo sapiens, UniProt Q02750).
The target of test [5] is Mitogen-activated protein kinase kinase kinase kinase 1 (Homo sapiens, UniProt Q92918).
In test [6] the target is S-adenosylmethionine synthase isoform type-2 (Homo sapiens, UniProt P31153).
The target in test [7] is Rho-associated protein kinase 1 (Homo sapiens, UniProt Q13464).
Note: in the data inactive means no Kd found up to 30 µM.

Chain of S-adenosylmethionine synthase isoform type-2 (P31153 whole entry, canonical isoform): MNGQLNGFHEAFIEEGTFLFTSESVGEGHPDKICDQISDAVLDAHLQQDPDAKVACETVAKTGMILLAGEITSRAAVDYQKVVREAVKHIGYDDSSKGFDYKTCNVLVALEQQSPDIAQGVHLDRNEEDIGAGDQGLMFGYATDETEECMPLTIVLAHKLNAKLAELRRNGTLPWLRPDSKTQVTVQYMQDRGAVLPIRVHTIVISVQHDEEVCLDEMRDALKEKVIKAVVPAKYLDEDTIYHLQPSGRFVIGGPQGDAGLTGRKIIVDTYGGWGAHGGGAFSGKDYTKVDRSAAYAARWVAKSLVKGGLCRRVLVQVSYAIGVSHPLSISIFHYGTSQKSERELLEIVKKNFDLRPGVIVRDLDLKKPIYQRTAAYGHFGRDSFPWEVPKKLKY
Chain of Rho-associated protein kinase 1 (Q13464 whole entry): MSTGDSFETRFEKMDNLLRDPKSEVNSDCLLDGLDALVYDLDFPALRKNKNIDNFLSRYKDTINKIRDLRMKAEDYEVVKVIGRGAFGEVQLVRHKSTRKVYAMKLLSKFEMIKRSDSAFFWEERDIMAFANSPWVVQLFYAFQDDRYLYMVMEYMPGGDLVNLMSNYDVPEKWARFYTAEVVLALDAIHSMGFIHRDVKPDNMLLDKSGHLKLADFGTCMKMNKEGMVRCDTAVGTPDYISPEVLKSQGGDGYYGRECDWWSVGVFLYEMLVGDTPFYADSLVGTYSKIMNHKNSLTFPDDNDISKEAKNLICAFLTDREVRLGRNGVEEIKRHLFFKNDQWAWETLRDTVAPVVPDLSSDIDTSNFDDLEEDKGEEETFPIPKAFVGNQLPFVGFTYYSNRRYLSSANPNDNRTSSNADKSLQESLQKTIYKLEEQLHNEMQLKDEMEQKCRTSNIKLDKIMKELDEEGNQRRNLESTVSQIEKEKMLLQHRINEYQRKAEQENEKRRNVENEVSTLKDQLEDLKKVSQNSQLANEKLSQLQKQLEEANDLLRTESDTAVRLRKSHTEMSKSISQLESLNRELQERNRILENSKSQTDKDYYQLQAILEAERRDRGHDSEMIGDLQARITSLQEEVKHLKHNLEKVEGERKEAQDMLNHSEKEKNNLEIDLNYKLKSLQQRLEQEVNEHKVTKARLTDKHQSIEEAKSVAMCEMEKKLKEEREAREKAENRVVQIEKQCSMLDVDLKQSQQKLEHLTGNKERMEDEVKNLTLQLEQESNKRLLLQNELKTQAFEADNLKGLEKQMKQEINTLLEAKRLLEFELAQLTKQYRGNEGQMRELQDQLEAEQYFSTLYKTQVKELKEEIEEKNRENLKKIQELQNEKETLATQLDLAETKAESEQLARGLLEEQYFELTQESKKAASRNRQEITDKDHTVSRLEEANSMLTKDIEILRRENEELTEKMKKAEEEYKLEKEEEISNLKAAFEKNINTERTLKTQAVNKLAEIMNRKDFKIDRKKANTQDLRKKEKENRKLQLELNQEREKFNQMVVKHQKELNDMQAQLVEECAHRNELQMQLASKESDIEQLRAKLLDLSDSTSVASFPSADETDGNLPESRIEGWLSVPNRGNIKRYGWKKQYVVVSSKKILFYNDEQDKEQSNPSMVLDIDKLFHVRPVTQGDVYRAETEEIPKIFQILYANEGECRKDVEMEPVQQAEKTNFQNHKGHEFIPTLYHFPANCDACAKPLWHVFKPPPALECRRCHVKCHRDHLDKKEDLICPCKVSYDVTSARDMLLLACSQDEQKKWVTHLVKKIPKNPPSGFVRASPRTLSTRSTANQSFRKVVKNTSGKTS
Chain of Dual specificity mitogen-activated protein kinase kinase 1 (Q02750 whole entry): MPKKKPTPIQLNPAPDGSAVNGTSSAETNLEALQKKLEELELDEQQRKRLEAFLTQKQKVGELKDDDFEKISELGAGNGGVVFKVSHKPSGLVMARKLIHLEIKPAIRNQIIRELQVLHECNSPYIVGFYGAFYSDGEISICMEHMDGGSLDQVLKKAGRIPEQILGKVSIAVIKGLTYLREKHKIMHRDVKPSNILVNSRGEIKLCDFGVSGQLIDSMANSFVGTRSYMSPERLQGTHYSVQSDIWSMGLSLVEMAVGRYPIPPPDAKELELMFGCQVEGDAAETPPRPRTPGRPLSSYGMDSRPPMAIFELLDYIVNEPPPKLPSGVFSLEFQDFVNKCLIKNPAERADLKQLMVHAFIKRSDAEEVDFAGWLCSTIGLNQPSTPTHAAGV
Chain of Mitogen-activated protein kinase kinase kinase kinase 1 (Q92918 whole entry, canonical isoform): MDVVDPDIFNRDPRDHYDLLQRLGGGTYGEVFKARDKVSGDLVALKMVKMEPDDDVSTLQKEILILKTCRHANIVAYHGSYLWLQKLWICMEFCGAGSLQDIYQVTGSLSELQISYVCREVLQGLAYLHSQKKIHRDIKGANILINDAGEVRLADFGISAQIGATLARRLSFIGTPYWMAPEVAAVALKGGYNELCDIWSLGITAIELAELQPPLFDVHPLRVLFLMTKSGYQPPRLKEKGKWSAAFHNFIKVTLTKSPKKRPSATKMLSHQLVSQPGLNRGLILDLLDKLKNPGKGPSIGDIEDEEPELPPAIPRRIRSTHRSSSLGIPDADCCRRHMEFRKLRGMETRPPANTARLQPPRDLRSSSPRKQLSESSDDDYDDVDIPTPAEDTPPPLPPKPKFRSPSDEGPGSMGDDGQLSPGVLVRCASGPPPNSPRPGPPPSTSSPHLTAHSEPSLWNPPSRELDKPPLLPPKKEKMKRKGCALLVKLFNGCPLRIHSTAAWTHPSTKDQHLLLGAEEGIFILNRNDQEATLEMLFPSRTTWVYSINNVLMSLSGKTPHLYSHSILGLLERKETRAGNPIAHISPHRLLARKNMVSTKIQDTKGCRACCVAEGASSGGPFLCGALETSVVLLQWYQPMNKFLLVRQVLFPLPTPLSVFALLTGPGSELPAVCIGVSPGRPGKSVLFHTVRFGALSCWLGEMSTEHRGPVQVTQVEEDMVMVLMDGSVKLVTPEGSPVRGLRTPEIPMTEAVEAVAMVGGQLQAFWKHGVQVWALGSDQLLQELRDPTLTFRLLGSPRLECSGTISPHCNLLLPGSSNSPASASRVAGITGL

Consider `C[C@H]1CNCCCN1S(=O)(=O)c1cccc2cncc(F)c12`, for which the Kd in test [1], in test [2], in test [3], in test [4], in test [5] and in test [6] was > 30 µM (inactive) each time.
Take `CCNC(=O)C#Cc1ccc2c(c1)NC(=O)/C2=C(\Nc1ccc(CN(C)C)cc1)c1ccccc1`: the Kd in test [1] is > 30 µM (inactive); in test [2], > 30 µM (inactive); in test [3] it was > 30 µM (inactive); in test [5] it was 0.875 µM (active); in test [6], > 30 µM (inactive); in test [7], > 30 µM (inactive).
Take `Nc1ncnc2c1c(-c1cccc(OCc3ccccc3)c1)cn2[C@H]1C[C@@H](CN2CCC2)C1` [AEW-541]: the dissociation constant Kd in test [1] was 1.2 µM (active); in test [2], > 30 µM (inactive); in test [3], > 30 µM (inactive); in test [4] it was 3.33 µM (active); in test [5] it was > 30 µM (inactive); in test [7], > 30 µM (inactive).
Regarding `COc1cc(Nc2ncc3c(n2)-c2ccc(Cl)cc2C(c2c(F)cccc2OC)=NC3)ccc1C(=O)O` [ALISERTIB], the Kd in test [1], in test [2], in test [3], in test [5] and in test [6] was > 30 µM (inactive) throughout.
For the compound `CNC(=O)c1ccccc1Sc1ccc2c(/C=C/c3ccccn3)n[nH]c2c1` [AXITINIB], the Kd in test [2] and in test [6] was > 30 µM (inactive) each time.
With `NC(=O)Nc1cc(-c2cccc(F)c2)sc1C(=O)N[C@H]1CCCNC1` [AZD-7762], the Kd in test [1] was > 30 µM (inactive); in test [2] it was > 30 µM (inactive); in test [3] it was > 30 µM (inactive); in test [4] it was 2.04 µM (active).
On to `Cc1cc(C(=O)NOCCO)c(Nc2ccc(I)cc2F)n(C)c1=O` [AZD-8330], for which the Kd in test [1], in test [2], in test [3], in test [5] and in test [7] was > 30 µM (inactive) in each case.
For `CC(C)(C)c1nc(-c2cccc(NS(=O)(=O)c3c(F)cccc3F)c2F)c(-c2ccnc(N)n2)s1` [DABRAFENIB], the Kd in test [2], in test [3], in test [4], in test [5] and in test [6] was > 30 µM (inactive) in each case.
With `Cn1cc(C2=C(c3cn(C4CCN(Cc5ccccn5)CC4)c4ccccc34)C(=O)NC2=O)c2ccccc21` [ENZASTAURIN], the Kd in test [2] and in test [6] was > 30 µM (inactive) in each case.
Take `C[C@@H](Oc1cc(-n2cnc3ccc(CN4CCN(C)CC4)cc32)sc1C(N)=O)c1ccccc1C(F)(F)F` [GSK-461364]: the Kd in test [2] and in test [6] was > 30 µM (inactive) in each case.
With `CCn1cc(-c2ccnc3[nH]c(-c4cccc(CN(C)C)c4)cc23)c(-c2ccc(NC(=O)N(C)C)cc2)n1` [GSK-1070916], the Kd in test [2], in test [3], in test [4], in test [5] and in test [7] was > 30 µM (inactive) in each case.
Turning to `O=C(Nc1cc(C(F)(F)F)cc(C(F)(F)F)c1)c1cc(Cl)ccc1O` [IMD-0354], the Kd in test [1], in test [2], in test [3], in test [4], in test [5] and in test [6] was > 30 µM (inactive) in each case.
As to `CNC(=O)c1cccc2cc(Oc3ccnc4cc(OCC5(N)CC5)c(OC)cc34)ccc12` [LUCITANIB], the Kd in test [1], in test [2], in test [3], in test [4], in test [5] and in test [6] was > 30 µM (inactive) in each case.
As to `Cc1[nH]c(/C=C2\C(=O)Nc3ccccc32)c(C)c1CCC(=O)O` [ORANTINIB], the Kd in test [1] is > 30 µM (inactive); in test [2] it was > 30 µM (inactive); in test [3] it was > 30 µM (inactive); in test [4], 3.43 µM (active); in test [5], 2.02 µM (active).
On to `NC(=O)c1c(OCc2c(F)cc(Br)cc2F)nsc1NC(=O)NCCCCN1CCCC1` [OSI-632], for which the Kd in test [2], in test [3], in test [5] and in test [6] was > 30 µM (inactive) each time.
`CC(=O)NCC(=O)N1[C@@H]2CC[C@H]1c1ccc(Nc3ncc(C(F)(F)F)c(NC4CCC4)n3)cc12` [PF-03814735]: the Kd in test [2], in test [3], in test [5] and in test [6] was > 30 µM (inactive) in each case.
For `N#CC1(c2ccc(NC(=O)c3cccnc3NCc3ccncc3)cc2)CCCC1` [RIVOCERANIB], the Kd in test [1], in test [2], in test [3], in test [4], in test [5] and in test [6] was > 30 µM (inactive) each time.
Consider `O=C(NOCCO)c1cc(CN2OCCCC2=O)c(F)c(F)c1Nc1ccc(I)cc1F` [RO-4987655], for which the Kd in test [2] and in test [6] was > 30 µM (inactive) in each case.
As for `N#CC[C@H](C1CCCC1)n1cc(-c2ncnc3[nH]ccc23)cn1` [RUXOLITINIB], the Kd in test [2] and in test [6] was > 30 µM (inactive) each time.
As to `O=c1[nH]ccc2cc(OC3CCNCC3)ccc12` [SAR-407899 FREE BASE], the Kd in test [1], in test [2], in test [3], in test [4], in test [5] and in test [6] was > 30 µM (inactive) each time.
As to `O=C(Cc1ccc(-c2ccc(OCCN3CCOCC3)cc2)cn1)NCc1ccccc1` [TIRBANIBULIN], the Kd in test [1], in test [2], in test [3], in test [4], in test [5] and in test [6] was > 30 µM (inactive) in each case.
Regarding `Cn1ncc(Cl)c1-c1cc(C(=O)N[C@H](CN)Cc2ccc(F)c(F)c2)oc1Cl` [UPROSERTIB], the Kd in test [1], in test [2], in test [3], in test [4] and in test [6] was > 30 µM (inactive) each time.
For the compound `C[C@@H](N)c1ccc(C(=O)Nc2ccnc3[nH]ccc23)cc1` [Y-39983], the Kd in test [1], in test [2], in test [3], in test [4], in test [5] and in test [6] was > 30 µM (inactive) in each case.
